How the values were obtained:
[1] = Liquid; for mass density: 298.15 K, 101.33 kPa
[2] = refractive index (Na D-line) (dimensionless); conditions: 298.15 K; 101.33 kPa; Liquid; Standard Abbe refractometry

CC(C)CO [2-methyl-1-propanol]
Conditions	mass density [kg/m3]	refractive index
[1]	797.83	–
[2]	–	1.3937

CC(=O)OCC(C)C [2-methylpropyl ethanoate]
Conditions	mass density [kg/m3]	refractive index
[1]	866.12	–
[2]	–	1.3876

CN(C)C=O [dimethylformamide]
Conditions	mass density [kg/m3]	refractive index
[1]	948.72	–
[2]	–	1.4265

[1]
Conditions	vapor or sublimation pressure [kPa]
345.45 K	6.3
350.38 K	7.81
354.51 K	9.27
359.05 K	11.16
362.74 K	12.93
366.7 K	15.07
370.69 K	17.53
374.89 K	20.48
379.24 K	23.95
382.97 K	27.32
386.75 K	31.1
390.07 K	34.78
393.2 K	38.56
396.61 K	43.04
399.91 K	47.82
403.1 K	52.73
405.94 K	57.53
408.79 K	62.66
411.23 K	67.37
413.35 K	71.68
415.66 K	76.65
417.84 K	81.58
419.86 K	86.33
421.87 K	91.37
423.7 K	96.06
425.6 K	101.2
